The target of assay [1] is ATP-binding cassette sub-family C member 3 (Homo sapiens, UniProt O15438). The experiment in a line: Inhibition of MRP3 (unknown origin) in presence of ATP by membrane vesicular transport assay. The format is cell membranes, Membrane vesicle.
Assay [2] addresses Phosphatidylcholine translocator ABCB4 (Homo sapiens, UniProt P21439). The experiment in a line: Inhibition of MDR3 in human hepatocytes in the presence of TCA incubated for 3 hrs by LC-MS/MS. The format is cell-based, Hepatocyte.
Assay [3] deals with T1, Solute carrier organic anion transporter family member 1B1 (Homo sapiens, UniProt Q9Y6L6).
T1 sequence (Q9Y6L6 whole entry): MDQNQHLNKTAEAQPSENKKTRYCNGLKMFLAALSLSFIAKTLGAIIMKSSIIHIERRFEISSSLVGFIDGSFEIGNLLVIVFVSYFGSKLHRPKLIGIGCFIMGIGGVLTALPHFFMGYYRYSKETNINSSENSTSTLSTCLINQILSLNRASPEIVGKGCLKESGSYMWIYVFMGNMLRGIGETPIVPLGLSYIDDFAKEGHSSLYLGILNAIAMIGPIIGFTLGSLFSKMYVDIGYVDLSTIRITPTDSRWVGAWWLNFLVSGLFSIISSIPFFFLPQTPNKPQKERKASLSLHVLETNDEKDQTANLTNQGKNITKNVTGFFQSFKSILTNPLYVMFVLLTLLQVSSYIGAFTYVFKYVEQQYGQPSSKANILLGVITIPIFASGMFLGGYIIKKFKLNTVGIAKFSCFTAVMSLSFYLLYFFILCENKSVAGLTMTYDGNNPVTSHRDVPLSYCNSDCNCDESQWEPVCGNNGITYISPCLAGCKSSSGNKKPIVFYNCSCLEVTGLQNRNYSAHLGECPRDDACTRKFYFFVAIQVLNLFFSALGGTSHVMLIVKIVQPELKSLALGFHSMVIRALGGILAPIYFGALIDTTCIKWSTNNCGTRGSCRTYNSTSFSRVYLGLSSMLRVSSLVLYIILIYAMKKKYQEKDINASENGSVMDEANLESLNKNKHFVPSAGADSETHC
Kind of assay: Inhibition of human OATP1B1 in HEK293 cells. It counts as cell-based.

Assay [4] has as its target T2, Solute carrier organic anion transporter family member 1B3 (Homo sapiens, UniProt Q9NPD5).
T2 sequence (Q9NPD5 whole entry): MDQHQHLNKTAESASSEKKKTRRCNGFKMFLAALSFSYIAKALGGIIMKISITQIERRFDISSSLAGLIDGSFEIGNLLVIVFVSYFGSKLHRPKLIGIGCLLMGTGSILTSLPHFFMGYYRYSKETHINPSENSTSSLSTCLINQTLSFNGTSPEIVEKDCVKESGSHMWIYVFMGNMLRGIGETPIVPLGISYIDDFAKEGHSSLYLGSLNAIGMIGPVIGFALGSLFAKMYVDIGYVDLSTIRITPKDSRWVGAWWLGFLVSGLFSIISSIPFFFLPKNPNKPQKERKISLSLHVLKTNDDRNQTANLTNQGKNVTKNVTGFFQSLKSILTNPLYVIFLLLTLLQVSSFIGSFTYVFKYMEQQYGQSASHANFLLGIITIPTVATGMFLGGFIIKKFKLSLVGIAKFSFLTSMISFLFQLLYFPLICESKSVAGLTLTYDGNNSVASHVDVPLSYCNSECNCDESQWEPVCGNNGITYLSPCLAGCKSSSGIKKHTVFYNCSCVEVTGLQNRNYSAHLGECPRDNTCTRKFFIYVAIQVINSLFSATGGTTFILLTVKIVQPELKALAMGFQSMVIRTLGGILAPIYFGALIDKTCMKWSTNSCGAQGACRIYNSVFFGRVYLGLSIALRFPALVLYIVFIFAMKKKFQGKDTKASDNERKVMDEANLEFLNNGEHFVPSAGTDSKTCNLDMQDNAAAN
Kind of assay: Inhibition of human OATP1B3 in HEK293 cells. The format is cell-based.

The target in assay [5] is T3, ATP-binding cassette sub-family C member 4 (Homo sapiens, UniProt O15439).
T3 sequence (O15439 whole entry): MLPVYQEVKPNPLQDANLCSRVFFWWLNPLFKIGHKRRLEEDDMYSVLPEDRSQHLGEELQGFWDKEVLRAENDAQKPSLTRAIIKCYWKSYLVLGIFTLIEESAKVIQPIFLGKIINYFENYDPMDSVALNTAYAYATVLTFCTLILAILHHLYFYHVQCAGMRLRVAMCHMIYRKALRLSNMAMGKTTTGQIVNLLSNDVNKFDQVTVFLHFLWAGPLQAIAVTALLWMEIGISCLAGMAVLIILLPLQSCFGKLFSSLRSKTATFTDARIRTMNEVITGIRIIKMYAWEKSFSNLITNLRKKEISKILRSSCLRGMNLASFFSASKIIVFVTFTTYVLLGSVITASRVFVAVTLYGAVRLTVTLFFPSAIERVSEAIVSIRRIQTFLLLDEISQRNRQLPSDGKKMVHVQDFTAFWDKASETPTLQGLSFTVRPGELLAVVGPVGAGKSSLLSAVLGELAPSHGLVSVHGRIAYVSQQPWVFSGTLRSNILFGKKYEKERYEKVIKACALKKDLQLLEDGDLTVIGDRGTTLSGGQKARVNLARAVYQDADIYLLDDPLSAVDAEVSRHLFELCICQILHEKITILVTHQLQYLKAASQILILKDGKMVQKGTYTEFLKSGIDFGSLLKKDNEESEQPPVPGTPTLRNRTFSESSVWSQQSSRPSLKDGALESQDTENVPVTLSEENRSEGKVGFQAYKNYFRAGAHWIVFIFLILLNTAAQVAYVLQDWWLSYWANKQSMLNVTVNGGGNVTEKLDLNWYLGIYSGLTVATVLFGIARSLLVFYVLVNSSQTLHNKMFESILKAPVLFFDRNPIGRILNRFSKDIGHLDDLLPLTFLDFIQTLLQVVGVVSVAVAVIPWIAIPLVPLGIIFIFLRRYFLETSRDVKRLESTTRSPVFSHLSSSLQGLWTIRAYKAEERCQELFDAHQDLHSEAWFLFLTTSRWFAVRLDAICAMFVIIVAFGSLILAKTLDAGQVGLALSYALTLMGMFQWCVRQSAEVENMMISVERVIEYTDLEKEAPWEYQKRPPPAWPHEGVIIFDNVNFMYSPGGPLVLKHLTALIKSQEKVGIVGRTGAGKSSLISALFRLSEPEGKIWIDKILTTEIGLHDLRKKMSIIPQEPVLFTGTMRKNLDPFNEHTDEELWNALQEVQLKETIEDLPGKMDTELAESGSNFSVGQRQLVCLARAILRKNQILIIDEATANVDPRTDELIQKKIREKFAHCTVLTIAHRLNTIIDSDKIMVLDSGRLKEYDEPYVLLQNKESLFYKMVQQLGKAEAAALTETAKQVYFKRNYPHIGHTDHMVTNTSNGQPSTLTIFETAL
The experiment in a line: Inhibition of MRP4 (unknown origin) in presence of ATP by membrane vesicular transport assay. The format is cell membranes, Membrane vesicle.

Another assay deals with Bile salt export pump (Homo sapiens, UniProt O95342). Kind of assay: Inhibition of BSEP in cryopreserved sandwich-cultured human hepatocytes by measuring reduction in TCA biliary clearance using taurocholic acid as substrate. It counts as cell-based, Hepatocyte.
Sequence of Bile salt export pump (O95342 whole entry): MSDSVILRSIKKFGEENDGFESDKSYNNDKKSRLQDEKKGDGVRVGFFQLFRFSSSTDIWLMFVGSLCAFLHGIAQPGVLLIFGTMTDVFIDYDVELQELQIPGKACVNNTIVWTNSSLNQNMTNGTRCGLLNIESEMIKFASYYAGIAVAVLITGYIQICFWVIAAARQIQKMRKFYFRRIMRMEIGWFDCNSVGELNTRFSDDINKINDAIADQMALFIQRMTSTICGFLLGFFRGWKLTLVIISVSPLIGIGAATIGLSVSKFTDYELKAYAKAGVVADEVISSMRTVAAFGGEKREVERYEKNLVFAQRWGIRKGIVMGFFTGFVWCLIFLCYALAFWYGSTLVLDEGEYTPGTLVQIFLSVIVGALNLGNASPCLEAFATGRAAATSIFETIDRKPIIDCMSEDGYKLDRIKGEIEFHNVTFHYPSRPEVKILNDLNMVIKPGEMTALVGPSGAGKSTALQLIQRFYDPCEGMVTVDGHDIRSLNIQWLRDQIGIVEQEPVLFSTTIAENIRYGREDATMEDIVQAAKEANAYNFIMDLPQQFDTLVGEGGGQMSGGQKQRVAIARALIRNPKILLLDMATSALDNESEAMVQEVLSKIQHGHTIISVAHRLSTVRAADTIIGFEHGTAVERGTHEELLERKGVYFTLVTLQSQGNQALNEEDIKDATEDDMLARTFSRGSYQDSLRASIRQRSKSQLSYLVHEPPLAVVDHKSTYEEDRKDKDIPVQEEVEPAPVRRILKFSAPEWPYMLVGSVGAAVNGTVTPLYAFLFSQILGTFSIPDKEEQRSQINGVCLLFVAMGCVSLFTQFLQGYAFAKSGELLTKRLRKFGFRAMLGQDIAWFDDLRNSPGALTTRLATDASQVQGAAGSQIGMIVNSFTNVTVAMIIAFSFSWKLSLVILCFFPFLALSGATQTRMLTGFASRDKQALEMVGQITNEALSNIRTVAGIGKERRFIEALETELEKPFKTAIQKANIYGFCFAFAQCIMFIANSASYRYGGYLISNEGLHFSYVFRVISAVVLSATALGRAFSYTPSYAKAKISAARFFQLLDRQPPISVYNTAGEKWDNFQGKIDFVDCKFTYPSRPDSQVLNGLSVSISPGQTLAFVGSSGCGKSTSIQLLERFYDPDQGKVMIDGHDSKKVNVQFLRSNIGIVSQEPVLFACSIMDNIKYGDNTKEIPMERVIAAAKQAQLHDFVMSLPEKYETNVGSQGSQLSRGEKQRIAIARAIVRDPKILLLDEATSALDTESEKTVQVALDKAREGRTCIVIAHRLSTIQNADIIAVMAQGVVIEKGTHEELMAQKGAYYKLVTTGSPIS
For assay [6], the target named is ATP-binding cassette sub-family C member 2 (Homo sapiens, UniProt Q92887). The experiment in a line: Inhibition of MRP2 (unknown origin) in presence of ATP by membrane vesicular transport assay. The format is cell membranes, Membrane vesicle.
Sequence of ATP-binding cassette sub-family C member 2 (Q92887 whole entry): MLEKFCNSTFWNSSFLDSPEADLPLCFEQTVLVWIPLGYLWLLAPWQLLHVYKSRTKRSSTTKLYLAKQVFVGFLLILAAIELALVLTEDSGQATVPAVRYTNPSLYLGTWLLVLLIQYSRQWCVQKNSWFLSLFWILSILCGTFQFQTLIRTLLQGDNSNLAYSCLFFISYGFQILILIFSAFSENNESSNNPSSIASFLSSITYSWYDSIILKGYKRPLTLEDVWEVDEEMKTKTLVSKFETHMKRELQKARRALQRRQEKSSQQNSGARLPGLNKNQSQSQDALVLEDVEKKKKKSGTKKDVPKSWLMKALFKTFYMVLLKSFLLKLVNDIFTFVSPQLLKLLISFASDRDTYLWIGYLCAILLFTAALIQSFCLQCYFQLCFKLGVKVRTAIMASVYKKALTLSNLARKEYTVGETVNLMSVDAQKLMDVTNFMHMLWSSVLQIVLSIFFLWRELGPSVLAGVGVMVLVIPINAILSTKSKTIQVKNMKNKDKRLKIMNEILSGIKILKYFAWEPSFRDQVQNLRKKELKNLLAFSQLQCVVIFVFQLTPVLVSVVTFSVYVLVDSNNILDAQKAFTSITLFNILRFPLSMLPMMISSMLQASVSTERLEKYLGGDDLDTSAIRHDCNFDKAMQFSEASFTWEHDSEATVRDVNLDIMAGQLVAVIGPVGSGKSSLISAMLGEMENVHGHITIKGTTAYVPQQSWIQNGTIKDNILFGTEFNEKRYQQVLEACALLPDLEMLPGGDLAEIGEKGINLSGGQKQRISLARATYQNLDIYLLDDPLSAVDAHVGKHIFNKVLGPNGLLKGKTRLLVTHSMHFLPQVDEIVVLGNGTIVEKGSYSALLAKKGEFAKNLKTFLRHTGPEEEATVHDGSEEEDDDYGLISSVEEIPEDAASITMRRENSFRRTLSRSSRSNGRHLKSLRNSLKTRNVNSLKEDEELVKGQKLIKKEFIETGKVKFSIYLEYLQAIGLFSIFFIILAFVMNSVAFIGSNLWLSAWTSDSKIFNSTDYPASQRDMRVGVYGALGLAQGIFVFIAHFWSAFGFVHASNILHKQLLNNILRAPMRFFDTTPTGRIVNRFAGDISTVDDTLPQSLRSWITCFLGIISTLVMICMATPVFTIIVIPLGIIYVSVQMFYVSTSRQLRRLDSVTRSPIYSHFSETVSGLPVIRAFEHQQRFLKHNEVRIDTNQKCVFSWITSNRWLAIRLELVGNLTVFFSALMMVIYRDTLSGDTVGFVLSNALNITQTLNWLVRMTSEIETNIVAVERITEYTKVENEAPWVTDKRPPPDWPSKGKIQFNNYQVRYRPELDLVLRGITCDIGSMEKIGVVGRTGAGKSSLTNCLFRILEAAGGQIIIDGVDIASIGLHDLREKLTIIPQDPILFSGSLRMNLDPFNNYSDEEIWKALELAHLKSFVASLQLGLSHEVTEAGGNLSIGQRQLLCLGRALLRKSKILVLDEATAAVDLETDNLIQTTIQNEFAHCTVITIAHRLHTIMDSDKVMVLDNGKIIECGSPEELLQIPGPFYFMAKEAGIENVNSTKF
The test system of the next assay is Mus musculus. Kind of assay: Antifibrotic activity against bleomycin-induced lung fibrosis in male C57Bl/6 mouse model assessed as reduction in ashcroft score at 50 mg/kg, po bid administered from day 7 to 21 relative to control. The format is functional. Also on record: scale not given: the % may be the effect or the level left. Conditions: time 15 day.

2 molecules from ChEMBL document CHEMBL6153155, “Novel Cyclohexyl Amido Acid Antagonists of Lysophosphatidic Acid Type 1 Receptor for the Treatment of Pulmonary Fibrosis” (ACS Med Chem Lett, 2025) can be followed below.

One may read the IC50 as the concentration needed to halve the response being measured.

Sequence of Phosphatidylcholine translocator ABCB4 (P21439 whole entry): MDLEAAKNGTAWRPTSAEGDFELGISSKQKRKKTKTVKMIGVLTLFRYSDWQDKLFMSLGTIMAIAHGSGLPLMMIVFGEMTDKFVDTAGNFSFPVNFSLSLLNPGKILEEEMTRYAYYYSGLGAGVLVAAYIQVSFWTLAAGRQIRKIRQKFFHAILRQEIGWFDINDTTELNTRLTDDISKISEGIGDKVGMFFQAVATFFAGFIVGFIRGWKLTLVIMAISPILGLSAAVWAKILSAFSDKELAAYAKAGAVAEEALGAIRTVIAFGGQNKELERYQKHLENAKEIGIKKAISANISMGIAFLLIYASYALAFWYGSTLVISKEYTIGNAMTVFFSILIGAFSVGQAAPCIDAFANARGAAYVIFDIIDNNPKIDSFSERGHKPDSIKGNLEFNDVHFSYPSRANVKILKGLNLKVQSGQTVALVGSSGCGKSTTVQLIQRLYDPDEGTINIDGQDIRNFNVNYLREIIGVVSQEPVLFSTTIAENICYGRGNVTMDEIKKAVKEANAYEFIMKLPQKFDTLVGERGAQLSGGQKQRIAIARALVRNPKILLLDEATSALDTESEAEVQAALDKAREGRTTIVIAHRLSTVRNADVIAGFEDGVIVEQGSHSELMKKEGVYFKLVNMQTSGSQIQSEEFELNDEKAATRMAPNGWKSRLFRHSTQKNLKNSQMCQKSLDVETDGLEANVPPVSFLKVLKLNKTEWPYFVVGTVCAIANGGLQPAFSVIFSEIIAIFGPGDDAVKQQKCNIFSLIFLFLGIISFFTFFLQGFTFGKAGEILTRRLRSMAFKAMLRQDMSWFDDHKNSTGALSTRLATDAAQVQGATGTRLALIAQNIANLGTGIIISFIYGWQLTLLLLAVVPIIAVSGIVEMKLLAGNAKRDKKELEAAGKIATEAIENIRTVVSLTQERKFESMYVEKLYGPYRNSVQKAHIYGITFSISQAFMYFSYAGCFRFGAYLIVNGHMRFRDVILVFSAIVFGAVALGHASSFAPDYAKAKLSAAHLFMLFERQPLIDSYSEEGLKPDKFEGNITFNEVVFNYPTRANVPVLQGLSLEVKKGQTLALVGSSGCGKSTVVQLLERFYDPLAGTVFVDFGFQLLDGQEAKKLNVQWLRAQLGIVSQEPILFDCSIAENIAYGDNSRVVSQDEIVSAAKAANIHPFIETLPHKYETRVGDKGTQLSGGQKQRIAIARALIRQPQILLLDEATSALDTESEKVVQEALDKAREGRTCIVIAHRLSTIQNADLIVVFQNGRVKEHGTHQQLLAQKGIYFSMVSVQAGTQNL

As to `Cc1noc(-c2ccc(-c3ccc(C4(C(=O)O)CC4)cc3)cc2)c1NC(=O)O[C@H](C)c1ccccc1` [BMS-986020], the IC50 in assay [1] is 20 µM; in assay [2] it was 7.94 µM; in assay [3], 0.158 µM; in assay [4] it was 0.631 µM; in assay [5], 6.31 µM; at Bile salt export pump, 2 µM. Also, in assay [6], the IC50 was 50.1 µM.

`COC(=O)c1ccc2c(c1)NC(=O)/C2=C(\Nc1ccc(N(C)C(=O)CN2CCN(C)CC2)cc1)c1ccccc1` [NINTEDANIB]: the Activity in the assay on Mus musculus is 23%.
